Experimental data from patent publication EP3553061A1, “NEW INHIBITORS OF BONE RESORPTION” (CENTRE NATIONAL DE LA RECHERCHE SCIENTIFIQUE (CNRS), priority 2018, dated 2019).
Several values for one entry are separate records, joined by “and”; a condition that tells them apart may be missing. Equal values may be shown once. Read-outs that look alike come from different tables or passages of the source. Values belong to the compound of their own block, whether it stands above or below them.

Biological target: T1, human Dock5 (Homo sapiens, UniProt Q9H7D0)
T1 construct: plasmid expressing the catalytic DHR2 domain of mouse or human Dock5; expressed in transfected cells; host or cells: 293T cells
T1 sequence (Q9H7D0 1231-1642 limits assumed): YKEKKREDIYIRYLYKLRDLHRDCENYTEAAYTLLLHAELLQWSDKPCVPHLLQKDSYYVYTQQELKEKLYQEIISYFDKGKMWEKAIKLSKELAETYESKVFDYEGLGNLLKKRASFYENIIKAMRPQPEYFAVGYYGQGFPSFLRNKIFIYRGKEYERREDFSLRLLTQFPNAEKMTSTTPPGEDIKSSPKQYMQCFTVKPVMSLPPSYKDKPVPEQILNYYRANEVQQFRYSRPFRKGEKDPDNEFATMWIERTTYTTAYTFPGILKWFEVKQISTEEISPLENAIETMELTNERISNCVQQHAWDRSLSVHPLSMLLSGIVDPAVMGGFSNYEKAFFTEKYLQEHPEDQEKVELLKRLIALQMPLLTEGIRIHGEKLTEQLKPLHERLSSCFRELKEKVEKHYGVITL
Experiment: Pull down assay of Rac activation by human Dock5 DHR2 in transfected 293T cells
Type: cell-based
Conditions: for IC50: 1 hour treatment; for inhibition at 100 µM: read-out: Inhibition
Description: Compounds E73, E88 and E78 were tested for their inhibiting effect of the activation of Rac by mouse Dock5 of and for certain human Dock5 according to a screening test using a pull down assay as represented in Figure 1.
Methodology (Figure 1): cells 293T seeded onto 100 mm diameter plates in a DMEM culture medium containing 10% serum in an incubator in 5.5% CO2 humidified atmosphere at 37°C. When they reach the density of 5x10^6 cells per plate, cells are transfected with 8 µg of plasmid expressing the catalytic DHR2 domain of mouse or human Dock5 in order to activate endogenous GTPase Rac. After 24 hours, the cells are lifted using trypsin and are seeded 10^6 per well in 6-well plates of 35 mms in diameter. The following day, the cells are put in contact during one hour with the compound, in a mother solution at 20 mM into 100% DMSO, to a test concentration of 100 µM into 0.5% DMSO in the DMEM medium containing 0.1% of BSA. The basal activation of Rac by Dock5 is measured from the cells treated with 0.5% DMSO. After treatment, the cells are observed under the optical microscope to make sure of the absence of any toxic effect of the compound. If cell suffering is detected, the test is invalidated and the compound is retested at a lower dosage. The cells are then lysed in 100 µl of the pull down buffer (10% glycerol, 50 mm Tris pH 7.4, 100 mM NaCl, 1% IGEPAL® CA-630 (SIGMA I3021), 2 mM MgCl2 supplemented with proteases inhibitors) and the lysate is incubated during one hour with 20 µg of sepharose beads coupled with the fusion protein GST-PAK-CRIB, which binds specifically the activated form of GTPase Rac, which is bound to GTP. After centrifugation and washings, the proteins associated with the beads, including active Rac GTPase, are denatured and loaded on an SDS PAGE gel. […] For each compound tested, the level of active Rac GTPase is quantified using the Image J software and is normalized to the concentration of total protein in the whole cell lysate. The efficiency of the molecule is defined by the level of active Rac after treatment compared to the level of active Rac in the cells treated with DMSO (control). An activity is considered as inhibitory if the level of Rac activation decreases by at least 10%, 20%, in particular at least 30%, 40%, and preferably at least 50% compared to the control treated with DMSO (Table 1).
The same approach was used to test the potency of molecules of the 48ED family, on the activity of human Dock5 DHR2 (Table 2). Table 2: Inhibitory activity of the compounds of the 48ED family on human Dock5 activity.

[1] = HEK-293T, Table 3, human Dock5, at 50µM
[2] = Table 3, human Dock5, test concentration 100 µM, 1 hour, replicate values, 100 µM
[3] = HEK-293T, Table 3, human Dock5, test concentration 100 µM, 1 hour, replicate values
[4] = Table 3, human Dock5, test concentration 100 µM, 1 hour, replicate values
[5] = HEK-293T, Table 2, human Dock5 DHR2, test concentration 100 µM, 1 hour, replicate values, Negative = Rac activation does not decrease
[6] = Table 2, human Dock5 DHR2, test concentration 100 µM, 1 hour, replicate values, Negative = Rac activation does not decrease, 100 µM
[7] = Table 2, human Dock5 DHR2, test concentration 100 µM, 1 hour, replicate values, Negative = Rac activation does not decrease

inhibition at 50 µM [1]: 40%
Inhibition [2]: 95% (2×) and 35%
IC50 (human Dock5): 35 µM
Structure (SMILES): O=S1(=O)N(c2ccccc2)C[C@H](O)[C@]12CCN(Cc1ccccc1Cl)C2 (racemic) [E196, rac-(4S,5R)-7-(2-chlorobenzyl)-4-hydroxy-2-phenyl-1-thia-2,7-diazaspiro[4.4]nonane 1,1-dioxide]

inhibition at 100 µM [3]: 40%
Inhibition [4]: 40% / 40%
Structure (SMILES): Cc1noc(C)c1CN1CC[C@@]2(C1)[C@@H](O)CN(c1ccccc1)S2(=O)=O [E199]

Inhibition [2]: 60% and 10% (2×)
Structure (SMILES): Cn1cc(CN2CC[C@@]3(C2)[C@@H](O)CN(c2ccccc2)S3(=O)=O)cn1 [E201]

inhibition at 100 µM [3]: 80%
Inhibition [2]: 85%
Structure (SMILES): O=S1(=O)N(c2cccc(Cl)c2)C[C@H](O)[C@]12CCN(Cc1ccccc1)C2 [E235]

inhibition at 100 µM [3]: 20%
Structure (SMILES): O=S1(=O)N(c2ccccc2)C[C@H](O)[C@]12CCN(C1CCCCCC1)C2 [E207]

inhibition at 100 µM [5]: 30%
Structure (SMILES): Cc1cc(C(=O)N2CC[C@@]3(C2)[C@@H](O)CN(c2ccccc2)S3(=O)=O)no1 [E136]

inhibition at 50 µM [1]: 85%
IC50 (human Dock5): 32 µM
Structure (SMILES): O=S1(=O)N(c2ccccc2)C[C@H](O)[C@]12CCN(Cc1ccc3c(c1)CCC3)C2 (racemic) [E210, rac-(4S,5R)-7-((2,3-dihydro-1H-inden-5-yl)methyl)-4-hydroxy-2-phenyl-1-thia-2,7-diazaspiro[4.4]nonane 1,1-dioxide]

Structure (SMILES): O=S1(=O)N(c2ccccc2)C[C@H](O)[C@]12CCNC2 [E123]
inhibition at 100 µM [5]: 10%

inhibition at 100 µM [5]: 30%
Structure (SMILES): CS(=O)(=O)N1CC[C@@]2(C1)[C@@H](O)CN(c1ccccc1)S2(=O)=O [E138]

Inhibition [6]: 70% and 50% and 95%
Structure (SMILES): O=C(CC1CCCC1)N1CC[C@@]2(C1)[C@@H](O)CN(c1ccccc1)S2(=O)=O [E135]

inhibition at 100 µM [3]: 90%
Inhibition [4]: 90%/ 90%
Structure (SMILES): CN(C)c1ccc(CN2CC[C@@]3(C2)[C@@H](O)CN(c2ccccc2)S3(=O)=O)cc1 [E213]

inhibition at 100 µM [3]: 35%
Structure (SMILES): CO[C@H]1CN(Cc2ccccc2)S(=O)(=O)[C@@]12CCN(Cc1ccccc1)C2 [E225]

inhibition at 100 µM [5]: 10%
Structure (SMILES): CN1C[C@H](Oc2ccccn2)[C@]2(CCN(Cc3ccccc3)C2)S1(=O)=O [E126]

Inhibition [6]: 40% and 50% and 85% and 90%
Structure (SMILES): O=S1(=O)N(c2ccccc2)C[C@H](O)[C@]12CCN(Cc1ccc(F)cc1)C2 [E127]

Inhibition [6]: 50% and 70% and 90%
Structure (SMILES): CS(=O)(=O)c1ccc(CN2CC[C@@]3(C2)[C@@H](O)CN(c2ccccc2)S3(=O)=O)cc1 [E131]

Inhibition [6]: 85% (2×) and 60% and 55%
Structure (SMILES): O=S1(=O)N(c2ccccc2)C[C@H](O)[C@]12CCN(Cc1ccccc1)C2 [E118]

Inhibition [6]: 70% and 90% and 95%
Structure (SMILES): N#Cc1ccc(CN2CC[C@@]3(C2)[C@@H](O)CN(c2ccccc2)S3(=O)=O)cc1 [E129]

inhibition at 50 µM [1]: 70%
Structure (SMILES): CCOC(=O)CO[C@H]1CN(c2ccccc2)S(=O)(=O)[C@@]12CCN(Cc1ccccc1)C2 [E231]

inhibition at 100 µM [3]: 70%
Inhibition [2]: 60%
Structure (SMILES): O=S1(=O)N(C2CCCCC2)C[C@H](O)[C@]12CCN(Cc1ccccc1)C2 [E233]

inhibition at 100 µM [3]: 20%
Structure (SMILES): O=S1(=O)N(Cc2ccccc2)C[C@H](Oc2ccccn2)[C@]12CCN(Cc1ccccc1)C2 [E224]

Inhibition [7]: Negative
Structure (SMILES): CN1C[C@H](O)[C@]2(CCN(Cc3ccccc3)C2)S1(=O)=O [E120]

inhibition at 50 µM [1]: 90%
IC50 (human Dock5): 44 µM
Structure (SMILES): COc1ccc(CN2CC[C@@]3(C2)[C@@H](O)CN(c2ccccc2)S3(=O)=O)cc1F (racemic) [E211, rac-(4S,5R)-7-(3-fluoro-4-methoxybenzyl)-4-hydroxy-2-phenyl-1-thia-2,7-diazaspiro[4.4]nonane 1,1-dioxide]

Inhibition [6]: 70% and 40% and 15%
Structure (SMILES): O=C(c1ccccc1)N1CC[C@@]2(C1)[C@@H](O)CN(c1ccccc1)S2(=O)=O [E137]

Inhibition [2]: 40% (2×) and 10%
Structure (SMILES): O=C(O)CO[C@H]1CN(c2ccccc2)S(=O)(=O)[C@@]12CCN(Cc1ccccc1)C2 [E232]

inhibition at 50 µM [1]: 60%
inhibition at 100 µM [3]: 100%
Inhibition [2]: 95%
IC50 (human Dock5): 33 µM
Structure (SMILES): Cn1cc(CN2CC[C@@]3(C2)[C@@H](O)CN(c2ccccc2)S3(=O)=O)c2ccccc21 (racemic) [E204, rac-(4S,5R)-4-hydroxy-7-((1-methyl-1H-indol-3-yl)methyl)-2-phenyl-1-thia-2,7-diazaspiro[4.4]nonane 1,1-dioxide]

Inhibition [2]: 80% and 45% and 30% and 70%
Structure (SMILES): CNC(=O)CO[C@H]1CN(c2ccccc2)S(=O)(=O)[C@@]12CCN(Cc1ccccc1)C2 [E230]

Inhibition [2]: 85% and 55% and 40% and 60%
Structure (SMILES): O=S1(=O)N(C2CCCCC2)C[C@@H](O)[C@]12CCN(Cc1ccccc1)C2 [E234]

Inhibition [6]: 60% and 10%
Structure (SMILES): O=S1(=O)N(c2ccccc2)C[C@@H](O)[C@]12CCN(Cc1ccccc1F)C2 [E139]

inhibition at 50 µM [1]: 70%
inhibition at 100 µM [3]: 100%
IC50 (human Dock5): 43 µM
Structure (SMILES): O=S1(=O)N(c2ccccc2)C[C@H](O)[C@]12CCN(Cc1cc3ccccc3o1)C2 (racemic) [E205, rac-(4S,5R)-7-(benzofuran-2-ylmethyl)-4-hydroxy-2-phenyl-1-thia-2,7-diazaspiro[4.4]nonane 1,1-dioxide]

inhibition at 50 µM [1]: 55%
IC50 (human Dock5): 20 µM
Structure (SMILES): O=C1N(c2cccc(F)c2)CCC12CCN(Cc1cccc(Cl)c1)C2 (stereo not shown) [E226, 7-(3-chlorobenzyl)-2-(3-fluorophenyl)-2,7-diazaspiro[4.4]nonan-1-one]

inhibition at 50 µM [1]: 65%
IC50 (human Dock5): 8 µM
Structure (SMILES): COc1ccc(N2CCC3(CCN(Cc4cccc(Cl)c4)C3)C2=O)cc1C (stereo not shown) [E228, 7-(3-chlorobenzyl)-2-(4-methoxy-3-methylphenyl)-2,7-diazaspiro[4.4]nonan-1-one]

inhibition at 100 µM [3]: 35%
Structure (SMILES): O=S1(=O)N(c2ccccc2)C[C@H](O)[C@]12CCN(Cc1cccs1)C2 [E208]

inhibition at 100 µM [5]: 25%
Structure (SMILES): O=S1(=O)N(c2ccccc2)C[C@H](O)[C@]12CCN(CCc1ccccc1)C2 [E217]

Inhibition [2]: 95% and 10% and 85%
Structure (SMILES): O=S1(=O)N(c2ccccc2)C[C@H](O)[C@]12CCN(CC1CCCCC1)C2 [E198]

Inhibition [2]: 50% and 100% and 70%
Structure (SMILES): O=S1(=O)N(c2ccccc2)C[C@H](O)[C@]12CCN(Cc1ccc3c(c1)OCO3)C2 [E206]

inhibition at 10 µM (HEK-293T, Table 2, human Dock5 DHR2, at 10µM): 50%
inhibition at 100 µM [5]: 70%
Inhibition (Table 2, human Dock5 DHR2, at 10µM): 60%
Structure (SMILES): O=S1(=O)N(c2ccccc2)C[C@H](O)[C@]12CCN(Cc1ccc3ccccc3c1)C2 [E132]

inhibition at 50 µM [1]: 95%
Inhibition (Table 3, human Dock5, at 50µM): 90%
IC50 (human Dock5): 22 µM
Structure (SMILES): O=S1(=O)N(c2ccccc2)C[C@H](O)[C@]12CCN(Cc1cnc3ccccc3c1)C2 (racemic) [E203, rac-(4S,5R)-4-hydroxy-2-phenyl-7-(quinolin-3-ylmethyl)-1-thia-2,7-diazaspiro[4.4]nonane 1,1-dioxide]

inhibition at 50 µM [1]: 65%
Structure (SMILES): O=S1(=O)N(c2ccccc2)C[C@H](OCCO)[C@]12CCN(Cc1ccccc1)C2 [E229]

inhibition at 100 µM [3]: 35%
Structure (SMILES): COc1cc(CN2CC[C@@]3(C2)[C@@H](O)CN(c2ccccc2)S3(=O)=O)cc(OC)c1 [E209]

inhibition at 100 µM [5]: 50%
Structure (SMILES): COC(=O)c1ccc(CN2CC[C@@]3(C2)[C@H](O)CN(c2ccccc2)S3(=O)=O)cc1 [E140]

Inhibition [7]: Negative
Structure (SMILES): CO[C@@H]1CN(C)S(=O)(=O)[C@@]12CCN(Cc1ccccc1)C2 [E125]

Inhibition [7]: Negative
Structure (SMILES): CO[C@H]1CN(C)S(=O)(=O)[C@@]12CCN(Cc1ccccc1)C2 [E124]

inhibition at 100 µM [5]: 25%
Structure (SMILES): O=S1(=O)N(c2ccccc2)C[C@@H](O)[C@]12CCN(Cc1ccccc1)C2 [E119]

inhibition at 100 µM [3]: 98%
Inhibition [2]: 100%
Structure (SMILES): O=S1(=O)N(c2ccccc2)C[C@H](O)[C@]12CCN(Cc1ccc3[nH]ccc3c1)C2 [E212]

inhibition at 50 µM (HEK-293T, Table 2, human Dock5 DHR2, at 50µM): 70%
inhibition at 100 µM [5]: 90%
Structure (SMILES): O=S1(=O)N(c2ccccc2)C[C@H](O)[C@]12CCN(Cc1cccc(C(F)(F)F)c1)C2 [E128]

Inhibition [2]: 90% and 50% and 60%
Structure (SMILES): COc1ccc(N2CCC3(CCN(Cc4cccc(Cl)c4)C3)C2=O)cc1OC (stereo not shown) [E227]
